Assay results: US12319676B2, “Substituted amide compounds useful as farnesoid X receptor modulators” (BRISTOL-MYERS SQUIBB COMPANY, priority 2019, dated 2025)

biological target: T1, human FXR (Homo sapiens, UniProt Q96RI1); assay: transient human FXR/Gal4-luciferase reporter assay; type: cell-based; settings: Gal4-hFXR fusion construct, luciferase reporter in HEK293 cells; overnight incubation; response as percentage of 8 μM GW-4064 control
T1 construct: expressed in transfected cells; host or cells: HEK293 cells stably carrying a 5xGal4 response element-luciferase reporter, transiently transfected with pcDNA3.1-Gal4-FXR
T1 sequence (Q96RI1 262-486 limits assumed): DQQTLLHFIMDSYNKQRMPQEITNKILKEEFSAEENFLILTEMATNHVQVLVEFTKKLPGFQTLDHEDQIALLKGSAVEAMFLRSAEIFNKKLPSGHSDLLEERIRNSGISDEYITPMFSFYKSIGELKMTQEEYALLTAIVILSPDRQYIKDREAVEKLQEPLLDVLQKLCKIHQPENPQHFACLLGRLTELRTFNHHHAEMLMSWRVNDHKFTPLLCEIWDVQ
Procedure, shortened: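 HEK293 cells stably carrying a 5×Gal4-response-element firefly luciferase reporter were transiently transfected with a Gal4 DBD-human FXR LBD fusion, then treated overnight with compounds at 37 °C. Steady-Glo luminescence, minus DMSO background, was expressed as percent of the response to 8 μM GW-4064.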

| Compound | EC50 |
| --- | --- |
| CS(=O)(=O)c1cccc(N(CC23CCC(c4nc(C5CC5)no4)(CC2)CC3)C(=O)[C@H]2C[C@](O)(C(F)(F)F)C2)c1 [Example 90, (1S,3S)—N-((4-(3-cyclopropyl-1,2,4-oxadiazol-5-yl)bicyclo[2.2.2]octan-1-yl)methyl)-3-hydroxy-N-(3-(methylsulfonyl)phenyl)-3-(trifluoromethyl)cyclobutane-1-carboxamide] | 4 µM |
| N#CC1(c2ccc(Nc3cccc(N(CC45CCC(c6noc(C7(F)CC7)n6)(CC4)CC5)C(=O)[C@H]4C[C@](O)(C(F)(F)F)C4)c3)cc2)CC1 [Example 91, (1S,3S)—N-(3-((4-(1-cyanocyclopropyl)phenyl)amino)phenyl)-N-((4-(5-(1-fluorocyclopropyl)-1,2,4-oxadiazol-3-yl)bicyclo[2.2.2]octan-1-yl)methyl)-3-hydroxy-3-(trifluoromethyl)cyclobutane-1-carboxamide] | 2.19 µM |
| CC(C)(C#N)Oc1ccc(Nc2cccc(N(CC34CCC(c5ccc(C(C)(F)F)cn5)(CC3)CC4)C(=O)[C@H]3C[C@](O)(C(F)(F)F)C3)c2)cc1 [Example 92, (1S,3S)—N-(3-((4-((2-cyanopropan-2-yl)oxy)phenyl)amino)phenyl)-N-((4-(5-(1,1-difluoroethyl)pyridin-2-yl)bicyclo[2.2.2]octan-1-yl)methyl)-3-hydroxy-3-(trifluoromethyl)cyclobutane-1-carboxamide] | 2.03 µM |
| CC(F)(F)c1ccc(C23CCC(CN(c4cccc(Nc5ccc(C6(C#N)CC6)cc5)c4)C(=O)[C@H]4C[C@](O)(C(F)(F)F)C4)(CC2)CC3)nc1 [Example 93, (1S,3S)—N-(3-((4-(1-cyanocyclopropyl)phenyl)amino)phenyl)-N-((4-(5-(1,1-difluoroethyl)pyridin-2-yl)bicyclo[2.2.2]octan-1-yl)methyl)-3-hydroxy-3-(trifluoromethyl)cyclobutane-1-carboxamide] | 1.42 µM |

Stronger by EC50, values ahead:

| EC50 | Compound |
| --- | --- |
| 0.179 µM | CC(C)(C)c1nc(C23CCC(CN(C(=O)C45CC(F)(C4)C5)c4cccc(Nc5ccc(F)cc5)c4)(CC2)CC3)no1 [Example 88, N-((4-(5-(tert-butyl)-1,2,4-oxadiazol-3-yl)bicyclo[2.2.2]octan-1-yi)methyl)-3-fluoro-N-(3-((4-fluorophenyl)amino)phenyl)bicyclo[1.1.1]pentane-1-carboxamide] |
| 1.12 µM | COC(=O)CCc1cccc(N(CC23CCC(c4ccc(N(C)C)cc4)(CC2)CC3)C(=O)C2CCCCC2)c1 [Example 89, Methyl 3-(3-(N-((4-(4-(dimethylamino)phenyl)bicyclo[2.2.2]octan-1-yl)methyl)cyclohexanecarboxamido)phenyl)propanoate] |
| 1.32 µM | CC(C)(C)c1noc(C23CCC(CN(C(=O)C45CC(F)(C4)C5)c4cncc(C#N)c4)(CC2)CC3)n1 [Example 94, N-((4-(3-(tert-butyl)-1,2,4-oxadiazol-5-yl)bicyclo[2.2.2]octan-1-yl)methyl)-N-(5-cyanopyridin-3-yl)-3-fluorobicyclo[1.1.1]pentane-1-carboxamide] |
| 0.181 µM | CC(C)(F)c1nc(C23CCC(CN(C(=O)N[C@H]4CC[C@](C)(O)CC4)c4cccc(C#N)c4)(CC2)CC3)no1 [Example 95, 1-(3-cyanophenyl)-1-((4-(5-(2-fluoropropan-2-yl)-1,2,4-oxadiazol-3-yl)bicyclo[2.2.2]octan-1-yl)methyl)-3-((1R,4R)-4-hydroxy-4-methylcyclohexyl)urea] |
| 1 µM | CC(C)(CO)CNC(=O)N(CC12CCC(c3noc(C(C)(C)F)n3)(CC1)CC2)c1cccc(C#N)c1 [Example 97, 1-(3-cyanophenyl)-1-((4-(5-(2-fluoropropan-2-yl)-1,2,4-oxadiazol-3-yl)bicyclo[2.2.2]octan-1-yl)methyl)-3-(3-hydroxy-2,2-dimethylpropyl)urea] |
| 0.23 µM | CC(F)(F)c1nc(C23CCC(CN(C(=O)N[C@H]4CC[C@H](O)CC4)c4cccc(C#N)c4)(CC2)CC3)no1 [Example 98, 1-(3-cyanophenyl)-1-((4-(5-(1,1-difluoroethyl)-1,2,4-oxadiazol-3-yl)bicyclo[2.2.2]octan-1-yl)methyl)-3-((1R,4R)-4-hydroxycyclohexyl)urea] |
